Assays:
Test in all cases: product formation, stir-bar GC-MS, recombinant E. coli protein
Format in all cases: cell-based
CsTPS24 = molecular target: T1, CsTPS24 (Cucumis sativus, UniProt Q9FRX5); conditions: 30 °C, 60 min
T1 construct: gene CsKS1; full-length cDNA in pACYCDuet, E. coli BL21(DE3); gene on chromosome VII; predicted plastid transit peptide
T1 sequence (Q9FRX5 1-785): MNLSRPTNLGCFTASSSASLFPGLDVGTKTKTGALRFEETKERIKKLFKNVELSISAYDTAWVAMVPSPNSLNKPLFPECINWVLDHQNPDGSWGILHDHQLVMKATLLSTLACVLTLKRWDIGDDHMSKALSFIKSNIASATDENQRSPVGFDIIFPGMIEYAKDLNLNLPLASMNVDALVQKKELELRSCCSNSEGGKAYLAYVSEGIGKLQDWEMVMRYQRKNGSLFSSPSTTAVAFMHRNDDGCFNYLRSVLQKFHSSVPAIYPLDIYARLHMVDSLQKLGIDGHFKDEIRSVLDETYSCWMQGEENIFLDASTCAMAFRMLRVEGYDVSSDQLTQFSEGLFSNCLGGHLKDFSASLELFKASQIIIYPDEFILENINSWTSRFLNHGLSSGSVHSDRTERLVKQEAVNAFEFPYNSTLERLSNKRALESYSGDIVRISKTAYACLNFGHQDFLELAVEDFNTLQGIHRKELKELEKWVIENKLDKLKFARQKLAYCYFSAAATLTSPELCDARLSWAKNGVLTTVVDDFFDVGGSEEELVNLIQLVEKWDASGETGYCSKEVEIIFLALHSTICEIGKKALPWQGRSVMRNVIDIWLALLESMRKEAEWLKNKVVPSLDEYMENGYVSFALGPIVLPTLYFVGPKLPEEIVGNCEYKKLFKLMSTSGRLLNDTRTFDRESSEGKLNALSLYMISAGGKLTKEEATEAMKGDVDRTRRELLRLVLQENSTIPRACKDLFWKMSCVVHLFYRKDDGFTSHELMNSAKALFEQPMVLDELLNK

CsTPS19 = molecular target: T2, CsTPS19 (Cucumis sativus, UniProt A0A0A0L6G4); conditions: 30 °C, 60 min; 10 µM substrate
T2 construct: gene Csa_3G095040; full-length cDNA in pACYCDuet, E. coli BL21(DE3); cytosolic
T2 sequence (A0A0A0L6G4 entry or part of it): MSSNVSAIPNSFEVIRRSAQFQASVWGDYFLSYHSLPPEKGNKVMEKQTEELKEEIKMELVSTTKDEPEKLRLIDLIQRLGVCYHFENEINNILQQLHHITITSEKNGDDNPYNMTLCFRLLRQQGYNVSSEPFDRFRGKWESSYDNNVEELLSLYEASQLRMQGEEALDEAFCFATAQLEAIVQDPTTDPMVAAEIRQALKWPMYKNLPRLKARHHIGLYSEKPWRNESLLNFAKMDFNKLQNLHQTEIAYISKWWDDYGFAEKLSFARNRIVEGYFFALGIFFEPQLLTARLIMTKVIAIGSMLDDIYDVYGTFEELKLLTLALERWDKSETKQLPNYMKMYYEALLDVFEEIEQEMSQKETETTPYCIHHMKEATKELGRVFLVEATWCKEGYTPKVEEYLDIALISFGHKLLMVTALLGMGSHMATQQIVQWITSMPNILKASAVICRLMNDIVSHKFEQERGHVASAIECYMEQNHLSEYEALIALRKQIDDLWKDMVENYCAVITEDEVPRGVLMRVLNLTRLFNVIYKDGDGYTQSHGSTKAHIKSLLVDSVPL

CsTPS14 = molecular target: T3, CsTPS14 (Cucumis sativus, UniProt A0A0A0L1X6); conditions: 30 °C, 60 min; 10 µM substrate
T3 construct: gene Csa_3G039850; full-length cDNA in pACYCDuet, E. coli BL21(DE3); no targeting peptide predicted
T3 sequence (A0A0A0L1X6 1-562): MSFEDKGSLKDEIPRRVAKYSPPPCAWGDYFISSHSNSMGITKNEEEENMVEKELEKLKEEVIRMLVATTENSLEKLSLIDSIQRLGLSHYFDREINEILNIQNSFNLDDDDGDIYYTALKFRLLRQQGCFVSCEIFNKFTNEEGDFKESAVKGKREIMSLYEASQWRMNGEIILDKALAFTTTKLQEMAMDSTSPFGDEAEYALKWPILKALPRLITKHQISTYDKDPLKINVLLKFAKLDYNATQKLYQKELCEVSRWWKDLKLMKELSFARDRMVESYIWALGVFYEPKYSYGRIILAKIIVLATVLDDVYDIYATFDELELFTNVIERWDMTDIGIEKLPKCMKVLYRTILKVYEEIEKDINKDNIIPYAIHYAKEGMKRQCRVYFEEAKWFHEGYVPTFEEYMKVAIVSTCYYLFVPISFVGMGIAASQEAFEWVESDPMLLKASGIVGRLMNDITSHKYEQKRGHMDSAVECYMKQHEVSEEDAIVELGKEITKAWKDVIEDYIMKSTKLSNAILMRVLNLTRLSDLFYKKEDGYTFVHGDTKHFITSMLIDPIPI

CsTPS12 = molecular target: T4, CsTPS12 (Cucumis sativus, UniProt A0A0A0LN25); conditions: 30 °C, 60 min; 10 µM substrate
T4 construct: gene Csa_2G427840; full-length cDNA in pACYCDuet, E. coli BL21(DE3); no targeting peptide predicted
T4 sequence (A0A0A0LN25 1-565): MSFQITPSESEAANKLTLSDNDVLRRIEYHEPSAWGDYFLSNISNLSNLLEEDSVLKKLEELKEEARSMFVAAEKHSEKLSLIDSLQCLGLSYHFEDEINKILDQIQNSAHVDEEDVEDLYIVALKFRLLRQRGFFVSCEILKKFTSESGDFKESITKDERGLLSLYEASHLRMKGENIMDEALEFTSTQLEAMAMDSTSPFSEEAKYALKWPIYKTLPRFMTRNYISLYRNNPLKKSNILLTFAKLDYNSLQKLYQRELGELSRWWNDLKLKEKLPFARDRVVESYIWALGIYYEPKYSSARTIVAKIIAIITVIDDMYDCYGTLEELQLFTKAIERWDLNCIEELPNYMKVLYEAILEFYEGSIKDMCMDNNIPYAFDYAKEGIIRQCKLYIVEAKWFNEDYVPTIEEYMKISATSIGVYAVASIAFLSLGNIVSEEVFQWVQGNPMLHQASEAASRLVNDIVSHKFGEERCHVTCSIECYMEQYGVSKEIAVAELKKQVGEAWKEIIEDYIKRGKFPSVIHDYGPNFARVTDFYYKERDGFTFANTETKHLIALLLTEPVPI

CsTPS22 = molecular target: T5, CsTPS22 (Cucumis sativus, UniProt A0A0A0L2I8); conditions: 30 °C, 60 min; 10 µM substrate
T5 construct: gene Csa_3G097540; full-length cDNA in pACYCDuet, E. coli BL21(DE3)
T5 sequence (A0A0A0L2I8 1-558): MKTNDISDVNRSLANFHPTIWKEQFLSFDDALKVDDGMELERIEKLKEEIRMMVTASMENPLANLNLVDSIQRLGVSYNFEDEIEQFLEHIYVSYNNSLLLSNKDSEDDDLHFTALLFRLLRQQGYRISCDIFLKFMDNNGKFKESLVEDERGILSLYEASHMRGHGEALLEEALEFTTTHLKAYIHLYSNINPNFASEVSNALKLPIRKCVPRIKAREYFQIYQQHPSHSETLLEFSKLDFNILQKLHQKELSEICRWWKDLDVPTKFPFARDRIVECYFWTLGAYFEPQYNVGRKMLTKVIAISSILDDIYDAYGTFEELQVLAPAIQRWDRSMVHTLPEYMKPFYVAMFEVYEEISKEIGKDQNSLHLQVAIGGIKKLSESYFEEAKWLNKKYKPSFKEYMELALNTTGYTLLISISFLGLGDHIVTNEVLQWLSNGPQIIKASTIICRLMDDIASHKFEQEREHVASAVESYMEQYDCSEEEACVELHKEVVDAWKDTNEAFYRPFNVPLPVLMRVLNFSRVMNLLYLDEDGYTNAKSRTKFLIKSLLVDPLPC

CsTPS15 = molecular target: T6, CsTPS15 (Cucumis sativus, UniProt A0A0A0L782); conditions: 30 °C, 60 min; 10 µM substrate
T6 construct: gene Csa_3G040850; full-length cDNA in pACYCDuet, E. coli BL21(DE3); predicted plastid transit peptide
T6 sequence (A0A0A0L782 1-568): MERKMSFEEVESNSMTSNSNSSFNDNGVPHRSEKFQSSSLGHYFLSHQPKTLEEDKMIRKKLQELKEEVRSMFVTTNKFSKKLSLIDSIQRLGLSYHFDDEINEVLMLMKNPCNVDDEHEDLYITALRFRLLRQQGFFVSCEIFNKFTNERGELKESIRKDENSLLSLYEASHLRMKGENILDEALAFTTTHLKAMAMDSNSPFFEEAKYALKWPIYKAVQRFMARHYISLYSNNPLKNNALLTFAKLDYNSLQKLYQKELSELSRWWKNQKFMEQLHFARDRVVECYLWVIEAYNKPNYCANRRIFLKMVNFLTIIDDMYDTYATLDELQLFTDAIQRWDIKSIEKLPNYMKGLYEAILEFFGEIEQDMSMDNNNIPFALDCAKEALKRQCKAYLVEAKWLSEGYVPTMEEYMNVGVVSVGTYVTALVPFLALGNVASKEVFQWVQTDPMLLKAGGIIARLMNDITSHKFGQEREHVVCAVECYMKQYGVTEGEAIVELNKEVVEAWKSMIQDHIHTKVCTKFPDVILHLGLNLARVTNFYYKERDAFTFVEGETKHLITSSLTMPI

CsTPS11 = molecular target: T7, CsTPS11 (Cucumis sativus, UniProt A0A0A0LMX2); conditions: 30 °C, 60 min; 10 µM substrate
T7 construct: gene Csa_2G299920; full-length cDNA in pACYCDuet, E. coli BL21(DE3); predicted plastid transit peptide
T7 sequence (A0A0A0LMX2 1-474): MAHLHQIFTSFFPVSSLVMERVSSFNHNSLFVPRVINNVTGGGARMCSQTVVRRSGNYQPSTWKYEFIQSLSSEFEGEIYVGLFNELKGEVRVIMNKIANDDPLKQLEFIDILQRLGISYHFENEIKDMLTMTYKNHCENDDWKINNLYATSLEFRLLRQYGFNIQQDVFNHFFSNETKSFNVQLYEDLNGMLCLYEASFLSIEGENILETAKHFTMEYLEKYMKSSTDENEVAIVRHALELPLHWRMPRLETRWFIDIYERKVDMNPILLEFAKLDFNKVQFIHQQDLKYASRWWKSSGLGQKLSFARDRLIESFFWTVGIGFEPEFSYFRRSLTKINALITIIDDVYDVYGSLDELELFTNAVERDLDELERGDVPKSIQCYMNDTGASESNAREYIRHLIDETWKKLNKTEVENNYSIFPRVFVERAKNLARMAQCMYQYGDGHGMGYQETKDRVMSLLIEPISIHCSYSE

CC(C)=CCC/C(C)=C/CC/C(C)=C/COP(=O)(O)OP(=O)(O)O [FPP]
product formation, stir-bar GC-MS, recombinant E. coli protein (CsTPS24; 10 µM substrate): both enzymes produced (E)‐nerolidol from FPP | product formation, stir-bar GC-MS, recombinant E. coli protein (CsTPS19): CsTPS19 predominantly catalysed the formation of (E,E)‐α‐farnesene from FPP | product formation, stir-bar GC-MS, recombinant E. coli protein (CsTPS14): CsTPS12, CsTPS14 and CsTPS17, which all catalysed the formation of (E)‐β‐farnesene | product formation, stir-bar GC-MS, recombinant E. coli protein (CsTPS12): CsTPS12, CsTPS14 and CsTPS17, which all catalysed the formation of (E)‐β‐farnesene | product formation, stir-bar GC-MS, recombinant E. coli protein (CsTPS22): the major products of CsTPS22 were (E)‐nerolidol and cadinol

CC(C)=CCC/C(C)=C/CC/C(C)=C/CC/C(C)=C/COP(=O)(O)OP(=O)(O)O [GGPP]
product formation, stir-bar GC-MS, recombinant E. coli protein (CsTPS24): only CsTPS24 accepted GGPP to produce geranyl linalool

CC(C)=CCC/C(C)=C/COP(=O)(O)OP(=O)(O)O [GPP]
product formation, stir-bar GC-MS, recombinant E. coli protein (CsTPS19): CsTPS19 which efficiently catalysed the formation of (E)‐β‐ocimene, myrcene and linalool from GPP | product formation, stir-bar GC-MS, recombinant E. coli protein (CsTPS15): CsTPS11 and CsTPS15 both catalysed the formation of myrcene, limonene | product formation, stir-bar GC-MS, recombinant E. coli protein (CsTPS11): CsTPS11 and CsTPS15 both catalysed the formation of myrcene, limonene
